Measured values published in publication PMC11329928, “Design, synthesis and structure-activity relationship (SAR) studies of an unusual class of non-cationic fatty amine-tripeptide conjugates as novel synthetic antimicrobial agents” (Frontiers in Pharmacology, 2024).

Experiments:
[1] = system: Streptococcus pneumoniae R6; assay: Growth inhibition / lysis screening of planktonic cultures (OD550/600); type: cell-based; parameters: key: (+++) full inhibition; (++) partial inhibition; (+) growth retardation; -: (−) no effect; details: S. pneumoniae R6, 50 and 100 μM compound added at early logarithmic phase (T1), OD550/600 followed 10 h, 37°C
Summary of the method: (§1)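 Early exponential-phase cultures (OD550/600 c. a. 0.15–0.2) were treated with DICAMs at 50 and 100 μM final, diluted from DMSO stocks into medium, and incubated 10 h at 37°C. Turbidity (OD550/600) was read every 20 min against untreated controls to track growth inhibition and lysis.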

[2] = system: Streptococcus pyogenes T; assay: Growth inhibition screening of planktonic cultures (OD550/600); type: cell-based; parameters: key: (+++) full inhibition; (++) partial inhibition; (+) growth retardation; -: (−) no effect; details: S. pyogenes T, 50 and 100 μM compound added at T1, OD550/600 followed 10 h, 37°C
Summary of the method: as §1

[3] = system: S. pneumoniae D39; type: cell-based, Streptococcus pneumoniae; details: 37°C
Source text: First, the substitution of the fatty amino chain of 18 carbon atoms of the reference compound DICAM 2 by either an OMe group (methylated tripeptide DICAM 5) or an amine with 12 carbon atoms (DICAM 9) abolished the activity against all three pathogens. However, the activity remained intact when the chain of the fatty amine of prototypes DICAMs 1 and 4 was two carbon atoms shorter (DICAM 10 and DICAM 12, respectively), based on S. pneumoniae and S. pyogenes results. […] Third, Glu and Ala were tolerated as C-terminal residues of the lipotripeptides. […] In addition, deletion of the C-terminal Glu (DICAM 13) eradicated the activity against S. pneumoniae and S. aureus. However, a delay and small inhibition of S. pyogenes ^T growth was still observed. Fourth, Glu (DICAMs 19 and 20) and Orn (DICAMs 21 and 22) were tolerated as N-terminal residues, with the impact of these modifications being pathogen-dependent. […] SAR studies continued by measuring the dose dependence of DICAM’s activity at T1 with all the compounds found to be active against S. pyogenes or S. aureus in the initial screening, and all but one compound in the case of S. pneumoniae. The OD values of bacterial cultures were monitored after DICAM addition, and the decrease in the number of viable bacteria was measured relative to controls (Figures 4–6; Supplementary Figure S1). As antibacterial efficacy may decline with the bacterium dose in the inoculum ([Belley et al., 2009]; [Udekwu et al., 2009]; [Luca et al., 2013]), the assays were performed using the bacterial concentrations necessary for the fluorescence experiments in Section 2.3 (10^7–10^8 CFU/mL). At these high bacterial densities, MICs were determined as the DICAM concentration at which bacteria neither grow nor are killed (the stationary concentration (SC)), following [Udekwu et al., 2009]. By fitting the logarithmic plot of cell viability decrease vs. the DICAM dose to a Hill function (see Section 5.2.3.1) we were able to determine the maximum variation in viability (Δlogmax = ∆log f - ∆log 0, where ∆log f and ∆log 0 are the upper and lower limits of Δlog) in the assay conditions, the SC concentration (Δlog = 0), the dose required for half-variation in Δlogmax (K 1/2), and the cooperativity of the antimicrobial effect (N H).
Susceptibility to DICAMs was first tested by growth-inhibition assays at 50 and 100 μM of compound. Briefly, working solutions at 5 mM or 10 mM DICAM in pure DMSO were prepared from DICAM stocks (40 mM in pure DMSO) and diluted with fresh culture medium to 5× the desired final concentration. Aliquots (50 µL) of these solutions were added to 200 µL of bacterium cultures grown to early exponential phase (OD550/600 c. a. 0.15–0.2 in sterile 96-well plates (Cultek, Spain). Incubation continued for 10 h at 37°C and turbidity (OD550/600) values were measured every 20 min to monitor growth and lysis, using a VersaMax microplate reader (Molecular Devices; United Kingdom). Next, the activity dependence on DICAM’s dose was examined by measuring the turbidity of treated and untreated cultures as a function of time. Also, the decay of bacterial viability (CFU/mL) at selected times of treatment was assessed by colony counting on LB-agar or TSA plates after overnight incubation at 37°C. By default, 10 μL of 10-fold serially diluted samples were plated, which set the lower detection limit at 10^2 CFU/mL (10^1 CFU/mL when 100 μL of the undiluted sample was seeded).
As antibacterial efficacy may decline with the bacterium dose in the inoculum ([Belley et al., 2009]; [Udekwu et al., 2009]; [Luca et al., 2013]), activity assays were performed using the bacterial concentrations required for the fluorescence experiments in Section 2.3 (10^7–10^8 CFU/mL). At such bacterial densities, MICs were determined as the DICAM concentration at which bacteria neither grow nor are killed under assay conditions (the stationary concentration (SC)), as indicated in Section 2.2. […]

[4] = system: human fetal lung fibroblasts IMR-90; type: cell-based; details: 48 h
Procedure: DICAM’s cytotoxicity was determined employing a modified MTT assay as described elsewhere ([Antúnez-Mojica et al., 2016]) using human lung carcinoma epithelial cells A549, human fetal lung fibroblasts IMR-90, and human HeLa cervix carcinoma cells treated with increasing concentrations of DICAMs (0.8–200 µM range). A549 cells were grown in RPMI 1640 (Gibco; Fisher Scientific, Spain) supplemented with 10% FCS, 2 mM glutamine, 100 IU/mL penicillin and 100 μg/mL streptomycin. IMR-90 and HeLa cells were cultured in DMEM (Gibco; Fisher Scientific, Spain) supplemented with 10% FCS, 2 mM L-glutamine, 1 mM pyruvate, […] penicillin, 100 μg/mL streptomycin and 40 μg/mL gentamycin. Cell viability was assessed after 48 h exposure to DICAMs. Vinblastine was used as a positive control. IC50 value is the concentration that gives 50% inhibition of cell growth and was determined using SigmaPlot (Systat) fitting to a Four Parameter Logistic curve.

[5] = S. pneumoniae D39, 50 μM (Supplementary Figure S1F), C+Y

For CCCCCCCCCCCCCCCCCCNC(=O)[C@H](CCC(=O)O)NC(=O)[C@H]1CCCN1C(=O)[C@H](CC(N)=O)NC(=O)OCc1ccccc1 [DICAM 1, Cbz-Asn- Pro -Glu-NH-C18H37], the “Growth halt or lysis (50/100 μM), Spn” value [1] was “+++”, the “Growth halt or lysis (50/100 μM), Spy T” value [2] was “+++” and the “SC (stationary concentration, Δlog = 0), S. pneumoniae D39” value ([3]; 1 h treatment, C + Y medium, added at T1, 10^7–10^8 CFU/mL, CFU vs untreated controls, Hill fit) was 2 ± 0.2 µM. For the same compound, the EC50 ([3]; 1 h treatment, C + Y, Hill fit, read-out: K 1/2 (concentration yielding half-variation in Δlogmax), S. pneumoniae D39 (converted)) was 3.8 ± 0.2 µM, the “Time required to reduce the viability by 99.99%” value [3, 5] was 2 to 2.5 h and the “Viability decrease in 1 h” value [3, 5] was “≈ 90%”. For the same compound, the “Δlogmax, S. pneumoniae D39” value ([3]; maximum variation in viability, 1 h treatment, C + Y, Hill fit) was 2.05 ± 0.03 logarithmic units and the IC50 [4] was 39 ± 1 µM.
